Read-outs that look alike come from different tables or passages of the source.
Experiments:
E. Coli DH5-α = experiment: Bacterial inhibition by antibiotics passed through the device (OD 600 nm); assay type: cell-based; conditions: azithromycin 5 mg/mL, vancomycin 15 mg/mL, streptomycin 20 mg/mL, 6 hours, 37°, versus same antibiotics not passed through device
Protocol: Inhibition of bacterial strain E. Coli DH5-α with antibiotics dissolved in deionized water was tested by passing the antibiotics and water through the device. The three antibiotics tested were azithromycin (5 mg/mL), vancomycin (15 mg/mL), and streptomycin (20 mg/mL). As a positive control, the same antibiotics (not passed through the device) were tested. Additional controls included deionized water, and deionized water passed through the device. After addition of 100 μl of antibiotics or deionized water into 8 mL of LB broth, 100 μl of bacterial stock at 0.5 OD at 600 nm was added. The experiment was performed with 4 biological replicates and 3 technical replicates, providing a sample size of n=12. Samples were incubated at 37° centigrade and 200 RPM in a shaker for 6 hours and then optical density was measured at 600 nm in a spectrophotometer.

[1] = for Droplette Hydration, improvement over starting hydration: left hand
Protocol: In yet another experiment, 4 human subjects volunteered to have about 50 μL of sterile distilled water sprayed into their hand and have hydration levels measured with a Corneometer CM825 device. Skin was visually inspected for any discoloration at the time of study and after 24 hours, and subject comfort was assessed and self-reported. A pen was used to draw circles denoting a delivery site (having a circle diameter of about 1.5 cm) on the backs of the right and left hands. Hydration in the circled regions for both the right and left hands was assessed at the start with a Corneometer CM 825. A device having a configuration as disclosed in FIGS. 1-14 was used for about 30 seconds to deliver about 50 μL sterile water to the left hand of each subject. After about 5 seconds of rest, the hand was blotted dry with a tissue. About 100 μL of sterile water was topically applied to the back of the right hand of each subject in the circled region and spread to cover that area. After about 5 seconds of rest, that hand was blotted dry with a tissue.

[2] = for depth of dye penetration: delivered with the device held 1 cm away from skin; for dye penetration: standard aerosol (piezoelectric transducer only) held 1 cm away
Source text: A device having a configuration as disclosed in FIGS. 1-14 was used in a test along with a standard aerosol generated using only the piezoelectric transducer to compare dye penetration between the device and the aerosol. A mix of water and brilliant blue dye with a molecular weight of 792 Daltons was used to test penetration. Both the aerosol and the device were held 1 cm away from skin, and the solution was sprayed onto chicken and porcine skin-covered tissue. The skin and tissue were cut and dye penetration was measured. […] In between a range of 500 to 800 Daltons, there are a number of antibiotics, such as those used to treat skin and soft tissue infections. One example is ceftaroline, which is an antibiotic for Methicillin-resistant Staphylococcus aureus.

CC[C@H]1OC(=O)[C@H](C)[C@@H](O[C@H]2C[C@@](C)(OC)[C@@H](O)[C@H](C)O2)[C@H](C)[C@@H](O[C@@H]2O[C@H](C)C[C@H](N(C)C)[C@H]2O)[C@](C)(O)C[C@@H](C)CN(C)[C@H](C)[C@@H](O)[C@]1(C)O [azithromycin]
bacterial inhibition after being passed through the device (E. Coli DH5-α): retained their native function

[H]/N=C(/N)N[C@H]1[C@H](O)[C@@H](O)[C@H](O[C@@H]2O[C@@H](C)[C@](O)(C=O)[C@H]2O[C@@H]2O[C@@H](CO)[C@H](O)[C@@H](O)[C@@H]2NC)[C@@H](N/C(N)=N\[H])[C@@H]1O [streptomycin]
bacterial inhibition after being passed through the device (E. Coli DH5-α): retained their native function

CN[C@H](CC(C)C)C(=O)N[C@H]1C(=O)N[C@@H](CC(N)=O)C(=O)N[C@H]2C(=O)N[C@H]3C(=O)N[C@H](C(=O)N[C@H](C(=O)O)c4cc(O)cc(O)c4-c4cc3ccc4O)[C@H](O)c3ccc(c(Cl)c3)Oc3cc2cc(c3O[C@@H]2O[C@H](CO)[C@@H](O)[C@H](O)[C@H]2O[C@H]2C[C@](C)(N)[C@H](O)[C@H](C)O2)Oc2ccc(cc2Cl)[C@H]1O [vancomycin]
bacterial inhibition after being passed through the device (E. Coli DH5-α): retained their native function

O [water]
water delivered into skin, device compared to topical application ([1]; 4 subjects, young and mature skin): significantly more water was delivered | Droplette Hydration, improvement over starting hydration ([1]; Subject 3, 1 Hour: Resting, about 50 μL sterile water by device): 58% improvement over | Topical Hydration, improvement ([1]; Subject 3, 1 Hour: Resting, about 100 μL sterile water topically, right hand): 0% improvement (back | Droplette Hydration, improvement over starting hydration ([1]; Subject 3, 2 Hours: had eaten lunch and consumed 2 cups of water, device): 55% improvement over | Topical Hydration, improvement over baseline ([1]; Subject 3, 2 Hours: had eaten lunch and consumed 2 cups of water, topical, right hand): 11% improvement over

brilliant blue [brilliant blue dye]
depth of dye penetration ([2]; chicken tissue): 1.23 cm | depth of dye penetration ([2]; porcine tissue): 1 cm | dye penetration ([2]; chicken skin): did not penetrate either animal skin to any noticeable depth | dye penetration ([2]; porcine skin): did not penetrate either animal skin to any noticeable depth
